According to ChEMBL document CHEMBL6074689 (Eur J Med Chem, 2025):

Assays:
Acetylcholinesterase = Acetylcholinesterase (Homo sapiens, UniProt P22303); test: Inhibition of human recombinant AChE expressed in HEK293 cells using acetylthiocholine iodide as substrate preincubated with compound for 30 mins followed by substrate addition and measured after 30 mins by DTNB reagent based Ellman's method
Cholinesterase = Cholinesterase (Equus caballus, UniProt P81908); test: Inhibition of equine serum BChE using acetylthiocholine iodide as substrate preincubated with compound for 30 mins followed by substrate addition and measured after 30 mins by DTNB reagent based Ellman's method
Cholinesterase, sequence (P81908 whole entry): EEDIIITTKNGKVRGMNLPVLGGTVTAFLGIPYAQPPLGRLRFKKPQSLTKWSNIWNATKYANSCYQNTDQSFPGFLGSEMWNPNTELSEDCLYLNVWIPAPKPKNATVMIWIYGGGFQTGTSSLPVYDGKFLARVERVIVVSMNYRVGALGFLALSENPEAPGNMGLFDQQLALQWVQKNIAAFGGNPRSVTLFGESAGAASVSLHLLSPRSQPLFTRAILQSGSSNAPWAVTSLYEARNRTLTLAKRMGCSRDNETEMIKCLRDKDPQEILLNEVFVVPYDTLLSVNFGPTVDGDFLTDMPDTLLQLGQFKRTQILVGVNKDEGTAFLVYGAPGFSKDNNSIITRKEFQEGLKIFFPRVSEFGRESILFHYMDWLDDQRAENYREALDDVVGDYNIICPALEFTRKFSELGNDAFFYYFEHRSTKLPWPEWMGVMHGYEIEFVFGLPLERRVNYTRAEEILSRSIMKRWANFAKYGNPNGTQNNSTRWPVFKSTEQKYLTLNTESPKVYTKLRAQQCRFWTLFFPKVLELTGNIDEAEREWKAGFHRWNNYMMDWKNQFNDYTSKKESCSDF

[1] = Antioxidant activity assessed as DPPH radical scavenging activity at 200 uM incubated for 30 mins relative to control; type: functional

Acetylcholinesterase, sequence (P22303 whole entry): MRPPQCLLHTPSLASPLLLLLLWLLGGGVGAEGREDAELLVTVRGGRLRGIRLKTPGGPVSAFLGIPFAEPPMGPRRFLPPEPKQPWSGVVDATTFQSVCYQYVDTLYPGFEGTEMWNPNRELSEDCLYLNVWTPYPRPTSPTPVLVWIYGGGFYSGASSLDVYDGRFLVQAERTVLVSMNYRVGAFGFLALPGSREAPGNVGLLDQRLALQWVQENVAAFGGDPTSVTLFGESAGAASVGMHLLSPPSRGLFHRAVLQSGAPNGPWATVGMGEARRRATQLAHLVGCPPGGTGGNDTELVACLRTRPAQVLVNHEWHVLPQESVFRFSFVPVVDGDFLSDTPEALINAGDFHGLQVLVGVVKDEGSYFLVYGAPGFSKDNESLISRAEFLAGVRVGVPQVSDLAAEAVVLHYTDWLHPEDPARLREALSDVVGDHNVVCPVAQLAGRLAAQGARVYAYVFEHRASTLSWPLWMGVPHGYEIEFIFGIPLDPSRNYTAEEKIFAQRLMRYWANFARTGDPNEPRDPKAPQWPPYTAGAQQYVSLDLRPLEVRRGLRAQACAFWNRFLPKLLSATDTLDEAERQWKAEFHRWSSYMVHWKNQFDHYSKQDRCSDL

| Compound | IC50 (Acetylcholinesterase) [nM] | IC50 (Cholinesterase) [nM] | Activity [1] [%] |
| --- | --- | --- | --- |
| C[C@H](c1cccc(OC(=O)NCCc2c[nH]c3ccc(Cl)cc23)c1)N(C)C | 8.38 | 7.66 | – |
| C[C@@H](c1cccc(OC(=O)NCCc2c[nH]c3ccccc23)c1)N(C)C | 22.2 | 11.1 | – |
| COc1ccc2[nH]cc(CCNC(=O)Oc3cccc([C@H](C)N(C)C)c3)c2c1 | 21.4 | 3.15 | 19.8 |
| Cc1ccc2[nH]cc(CCNC(=O)Oc3cccc([C@H](C)N(C)C)c3)c2c1 | 54.7 | 26.5 | – |
| COc1ccc2[nH]cc(CCNC(=O)Oc3cccc(C(C)N(C)C)c3)c2c1 (stereo not drawn) | 48.3 | 13.6 | – |
| Cc1ccc2[nH]cc(CCNC(=O)Oc3cccc(C(C)N(C)C)c3)c2c1 (stereo not drawn) | 73.3 | 38.7 | – |
